# From ChEMBL document CHEMBL1909046, “DrugMatrix in vitro pharmacology data”
# pIC50, pKi: −log10 of the molar value.
# Target: 5-hydroxytryptamine receptor 4 (Cavia porcellus, UniProt O70528); further: in other assays of this panel Not Active means under 50% inhibition at 10 µM
# Assay: not given
# Format: cell membranes, Dunkin-Hartley, Striatum, Membrane
# Settings: not given
# Chain of 5-hydroxytryptamine receptor 4 (O70528 whole entry): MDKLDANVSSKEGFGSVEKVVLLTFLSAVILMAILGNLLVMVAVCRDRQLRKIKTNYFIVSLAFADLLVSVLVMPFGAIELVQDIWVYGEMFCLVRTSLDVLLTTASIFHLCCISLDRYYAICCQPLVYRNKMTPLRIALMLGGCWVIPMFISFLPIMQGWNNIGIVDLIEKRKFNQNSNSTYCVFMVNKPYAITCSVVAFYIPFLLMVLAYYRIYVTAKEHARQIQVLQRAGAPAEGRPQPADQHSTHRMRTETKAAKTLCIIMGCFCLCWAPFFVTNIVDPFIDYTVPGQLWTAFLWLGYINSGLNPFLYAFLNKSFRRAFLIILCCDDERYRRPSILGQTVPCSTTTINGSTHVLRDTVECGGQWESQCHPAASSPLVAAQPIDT
row,SMILES,IC50
1,Nc1ccc(S(N)(=O)=O)cc1 [SULFANILAMIDE],Not Active
2,CN1CCN2c3ccccc3Cc3ccccc3C2C1 (stereo unspecified) [MIANSERIN],Not Active
3,Clc1ccccc1C(c1ccccc1)(c1ccccc1)n1ccnc1 [CLOTRIMAZOLE],Not Active
4,CC(C)(O)c1ccccc1CC[C@@H](SCC1(CC(=O)O)CC1)c1cccc(/C=C/c2ccc3ccc(Cl)cc3n2)c1 [MONTELUKAST],Not Active
5,COc1ccc(CCN2CCC(Nc3nc4ccccc4n3Cc3ccc(F)cc3)CC2)cc1 [ASTEMIZOLE],Not Active
6,CN(C)CCCN1c2ccccc2CCc2ccc(Cl)cc21 [CLOMIPRAMINE],Not Active

# Target: T1, Angiotensin-converting enzyme (Oryctolagus cuniculus, UniProt P12822);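 further: enzymatic inhibition of angiotensin-converting enzyme measured with FAPGG as the substrate; in other assays of this panel Not Active means under 50% inhibition at 10 µM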
# T1 sequence (P12822 whole entry): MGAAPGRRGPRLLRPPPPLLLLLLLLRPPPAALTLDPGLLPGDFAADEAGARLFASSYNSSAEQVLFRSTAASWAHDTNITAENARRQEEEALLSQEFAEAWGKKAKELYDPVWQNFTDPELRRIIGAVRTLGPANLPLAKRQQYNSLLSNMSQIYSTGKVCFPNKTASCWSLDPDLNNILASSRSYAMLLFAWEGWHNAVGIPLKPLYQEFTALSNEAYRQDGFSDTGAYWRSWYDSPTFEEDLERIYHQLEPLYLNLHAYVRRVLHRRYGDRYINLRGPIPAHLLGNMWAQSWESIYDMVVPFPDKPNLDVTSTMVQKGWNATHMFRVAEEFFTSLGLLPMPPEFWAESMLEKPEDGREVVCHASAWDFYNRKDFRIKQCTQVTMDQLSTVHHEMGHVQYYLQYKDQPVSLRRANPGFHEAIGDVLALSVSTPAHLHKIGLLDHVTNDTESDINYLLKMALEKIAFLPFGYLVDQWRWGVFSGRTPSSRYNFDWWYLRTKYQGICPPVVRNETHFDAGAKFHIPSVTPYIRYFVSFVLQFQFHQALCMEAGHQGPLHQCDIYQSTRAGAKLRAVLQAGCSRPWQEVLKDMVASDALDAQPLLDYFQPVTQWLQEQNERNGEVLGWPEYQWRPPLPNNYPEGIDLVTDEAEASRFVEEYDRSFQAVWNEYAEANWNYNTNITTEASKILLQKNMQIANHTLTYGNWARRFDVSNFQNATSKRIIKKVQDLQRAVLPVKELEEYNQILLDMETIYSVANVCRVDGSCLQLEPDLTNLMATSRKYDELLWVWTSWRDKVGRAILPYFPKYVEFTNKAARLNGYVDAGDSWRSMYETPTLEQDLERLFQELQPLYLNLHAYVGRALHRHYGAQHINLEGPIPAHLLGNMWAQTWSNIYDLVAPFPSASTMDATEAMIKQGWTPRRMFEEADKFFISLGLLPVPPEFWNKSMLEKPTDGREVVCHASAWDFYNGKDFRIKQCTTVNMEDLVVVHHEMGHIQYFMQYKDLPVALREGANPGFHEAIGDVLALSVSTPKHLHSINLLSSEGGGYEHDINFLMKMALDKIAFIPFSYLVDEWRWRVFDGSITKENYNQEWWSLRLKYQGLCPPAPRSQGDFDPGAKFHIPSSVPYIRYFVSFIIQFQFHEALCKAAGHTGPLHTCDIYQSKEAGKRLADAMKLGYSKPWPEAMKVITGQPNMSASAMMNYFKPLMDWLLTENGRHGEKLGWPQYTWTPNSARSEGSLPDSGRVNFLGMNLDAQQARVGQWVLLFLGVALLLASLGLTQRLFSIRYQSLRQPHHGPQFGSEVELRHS
# Assay: biochemical
# Format: tissue-based, Lung
# Settings: not given
row,SMILES,IC50
1,Nc1ccc(S(N)(=O)=O)cc1 [SULFANILAMIDE],Not Active
2,CN1CCN2c3ccccc3Cc3ccccc3C2C1 (stereo unspecified) [MIANSERIN],Not Active
3,Clc1ccccc1C(c1ccccc1)(c1ccccc1)n1ccnc1 [CLOTRIMAZOLE],Not Active
4,CC(C)(O)c1ccccc1CC[C@@H](SCC1(CC(=O)O)CC1)c1cccc(/C=C/c2ccc3ccc(Cl)cc3n2)c1 [MONTELUKAST],Not Active
5,COc1ccc(CCN2CCC(Nc3nc4ccccc4n3Cc3ccc(F)cc3)CC2)cc1 [ASTEMIZOLE],Not Active
6,CN(C)CCCN1c2ccccc2CCc2ccc(Cl)cc21 [CLOMIPRAMINE],Not Active

# Target: C-C chemokine receptor type 2 (Homo sapiens, UniProt P41597); further: in other assays of this panel Not Active means under 50% inhibition at 10 µM
# Sequence (P41597 whole entry): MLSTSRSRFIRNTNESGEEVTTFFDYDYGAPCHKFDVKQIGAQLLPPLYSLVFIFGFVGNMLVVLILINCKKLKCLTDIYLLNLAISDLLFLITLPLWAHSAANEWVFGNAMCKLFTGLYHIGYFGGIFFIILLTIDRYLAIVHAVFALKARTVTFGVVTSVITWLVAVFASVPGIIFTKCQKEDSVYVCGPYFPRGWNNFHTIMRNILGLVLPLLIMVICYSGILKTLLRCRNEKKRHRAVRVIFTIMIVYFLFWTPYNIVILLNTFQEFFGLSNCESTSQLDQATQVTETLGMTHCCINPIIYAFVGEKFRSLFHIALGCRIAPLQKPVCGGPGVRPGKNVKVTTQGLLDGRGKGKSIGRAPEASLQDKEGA
# Assay: not given
# Format: cell membranes, CHO-K1, Membrane
# Settings: cho-k1
row,SMILES,IC50
1,Nc1ccc(S(N)(=O)=O)cc1 [SULFANILAMIDE],Not Active
2,CN1CCN2c3ccccc3Cc3ccccc3C2C1 (stereo unspecified) [MIANSERIN],Not Active
3,Clc1ccccc1C(c1ccccc1)(c1ccccc1)n1ccnc1 [CLOTRIMAZOLE],Not Active
4,CC(C)(O)c1ccccc1CC[C@@H](SCC1(CC(=O)O)CC1)c1cccc(/C=C/c2ccc3ccc(Cl)cc3n2)c1 [MONTELUKAST],Not Active
5,COc1ccc(CCN2CCC(Nc3nc4ccccc4n3Cc3ccc(F)cc3)CC2)cc1 [ASTEMIZOLE],Not Active
6,CN(C)CCCN1c2ccccc2CCc2ccc(Cl)cc21 [CLOMIPRAMINE],Not Active

# System: not listed separately
# Assay: DRUGMATRIX: Interleukin IL-1 radioligand binding (ligand: [125I] interleukin 1beta)
# Format: cell membranes, Membrane
# Settings: nih3t3; Not Active = under 50% inhibition at 10 µM
SMILES,IC50,Ki
Nc1ccc(S(N)(=O)=O)cc1 [SULFANILAMIDE],Not Active,Not Active

# Target: Matrix metalloproteinase-9 (Homo sapiens, UniProt P14780);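 further: inhibition of isolated MMP-9 enzyme activity toward a synthetic peptide substrate, from the DrugMatrix protease screening panel; in other assays of this panel Not Active means under 50% inhibition at 10 µM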
# Sequence (P14780 whole entry): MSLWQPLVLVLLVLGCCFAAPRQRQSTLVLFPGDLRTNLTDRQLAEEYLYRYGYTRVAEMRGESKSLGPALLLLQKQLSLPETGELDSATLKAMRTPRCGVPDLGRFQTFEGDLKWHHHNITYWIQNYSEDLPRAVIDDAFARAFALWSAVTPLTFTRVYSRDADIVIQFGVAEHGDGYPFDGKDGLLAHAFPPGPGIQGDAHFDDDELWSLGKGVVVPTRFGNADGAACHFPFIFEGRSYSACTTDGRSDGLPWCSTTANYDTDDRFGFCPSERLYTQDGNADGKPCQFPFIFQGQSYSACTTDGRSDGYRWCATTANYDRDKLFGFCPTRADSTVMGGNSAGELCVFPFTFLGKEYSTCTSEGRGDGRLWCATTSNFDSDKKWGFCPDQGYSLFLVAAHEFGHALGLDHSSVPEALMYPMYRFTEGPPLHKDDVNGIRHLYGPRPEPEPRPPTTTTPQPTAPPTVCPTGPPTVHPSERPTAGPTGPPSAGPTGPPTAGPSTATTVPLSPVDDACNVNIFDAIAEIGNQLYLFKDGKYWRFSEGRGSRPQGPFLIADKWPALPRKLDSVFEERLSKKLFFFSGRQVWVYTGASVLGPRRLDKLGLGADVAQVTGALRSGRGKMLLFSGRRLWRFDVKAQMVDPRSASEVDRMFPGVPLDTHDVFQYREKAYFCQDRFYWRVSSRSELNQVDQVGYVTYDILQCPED
# Assay: not given
# Format: cell-based
# Settings: not given
row,SMILES,IC50
1,Nc1ccc(S(N)(=O)=O)cc1 [SULFANILAMIDE],Not Active
2,CN1CCN2c3ccccc3Cc3ccccc3C2C1 (stereo unspecified) [MIANSERIN],Not Active
3,Clc1ccccc1C(c1ccccc1)(c1ccccc1)n1ccnc1 [CLOTRIMAZOLE],Not Active
4,CC(C)(O)c1ccccc1CC[C@@H](SCC1(CC(=O)O)CC1)c1cccc(/C=C/c2ccc3ccc(Cl)cc3n2)c1 [MONTELUKAST],Not Active
5,COc1ccc(CCN2CCC(Nc3nc4ccccc4n3Cc3ccc(F)cc3)CC2)cc1 [ASTEMIZOLE],Not Active
6,CN(C)CCCN1c2ccccc2CCc2ccc(Cl)cc21 [CLOMIPRAMINE],Not Active

# Target: T2, Amine oxidase [flavin-containing] A (Homo sapiens, UniProt P21397)
# T2 sequence (P21397 whole entry): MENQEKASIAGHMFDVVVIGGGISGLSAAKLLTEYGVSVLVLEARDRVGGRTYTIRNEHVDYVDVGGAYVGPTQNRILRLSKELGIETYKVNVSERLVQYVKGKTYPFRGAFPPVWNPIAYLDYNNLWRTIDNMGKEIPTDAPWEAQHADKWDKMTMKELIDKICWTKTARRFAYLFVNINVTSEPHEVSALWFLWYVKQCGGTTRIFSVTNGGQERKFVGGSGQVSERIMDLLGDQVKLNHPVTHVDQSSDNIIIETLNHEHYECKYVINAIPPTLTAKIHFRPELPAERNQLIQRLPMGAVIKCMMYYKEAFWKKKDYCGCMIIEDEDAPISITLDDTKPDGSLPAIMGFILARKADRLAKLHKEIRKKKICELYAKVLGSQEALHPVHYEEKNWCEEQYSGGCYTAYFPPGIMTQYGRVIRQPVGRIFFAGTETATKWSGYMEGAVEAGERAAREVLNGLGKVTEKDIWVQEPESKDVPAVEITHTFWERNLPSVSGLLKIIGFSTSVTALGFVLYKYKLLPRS
# Assay: DRUGMATRIX: Monoamine Oxidase MAO-A enzyme inhibition (substrate: Kynuramine)
# Design: species or system BTI-TN-5B1-4
# Settings: bti-tn-5b1-4; Not Active = under 50% inhibition at 10 µM
row,SMILES,IC50
1,Nc1ccc(S(N)(=O)=O)cc1 [SULFANILAMIDE],Not Active
2,CN1CCN2c3ccccc3Cc3ccccc3C2C1 (stereo unspecified) [MIANSERIN],Not Active
3,Clc1ccccc1C(c1ccccc1)(c1ccccc1)n1ccnc1 [CLOTRIMAZOLE],Not Active
4,CC(C)(O)c1ccccc1CC[C@@H](SCC1(CC(=O)O)CC1)c1cccc(/C=C/c2ccc3ccc(Cl)cc3n2)c1 [MONTELUKAST],Not Active
5,COc1ccc(CCN2CCC(Nc3nc4ccccc4n3Cc3ccc(F)cc3)CC2)cc1 [ASTEMIZOLE],Not Active
6,CN(C)CCCN1c2ccccc2CCc2ccc(Cl)cc21 [CLOMIPRAMINE],Not Active

# Target: Tyrosine-protein kinase Lck (Homo sapiens, UniProt P06239)
# Sequence (P06239 whole entry): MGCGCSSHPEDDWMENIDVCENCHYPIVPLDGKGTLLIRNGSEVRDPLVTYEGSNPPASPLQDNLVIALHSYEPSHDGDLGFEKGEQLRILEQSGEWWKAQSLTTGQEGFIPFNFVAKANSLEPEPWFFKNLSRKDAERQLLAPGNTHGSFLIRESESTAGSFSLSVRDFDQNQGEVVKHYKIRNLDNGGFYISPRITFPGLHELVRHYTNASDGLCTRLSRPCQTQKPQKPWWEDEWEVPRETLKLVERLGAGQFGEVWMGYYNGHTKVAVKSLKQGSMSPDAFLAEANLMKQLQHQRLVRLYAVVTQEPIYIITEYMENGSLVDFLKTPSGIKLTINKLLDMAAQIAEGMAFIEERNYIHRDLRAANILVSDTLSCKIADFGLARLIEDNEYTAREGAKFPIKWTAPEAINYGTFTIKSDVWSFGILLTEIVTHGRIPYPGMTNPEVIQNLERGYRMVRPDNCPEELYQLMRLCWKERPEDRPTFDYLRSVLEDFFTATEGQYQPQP
# Assay: DRUGMATRIX: Protein Tyrosine Kinase, LCK enzyme inhibition (substrate: Poly(Glu:Tyr))
# Format: cell-based, Insect cells
# Settings: Not Active = under 50% inhibition at 10 µM; read-out: IC50
row,SMILES,pIC50
1,COc1ccc(CCN2CCC(Nc3nc4ccccc4n3Cc3ccc(F)cc3)CC2)cc1 [ASTEMIZOLE],4.70

# Same assay, conditions: insect cells; Not Active = under 50% inhibition at 10 µM
row,SMILES,IC50
1,Nc1ccc(S(N)(=O)=O)cc1 [SULFANILAMIDE],Not Active
2,CN1CCN2c3ccccc3Cc3ccccc3C2C1 (stereo unspecified) [MIANSERIN],Not Active
3,Clc1ccccc1C(c1ccccc1)(c1ccccc1)n1ccnc1 [CLOTRIMAZOLE],Not Active
4,CC(C)(O)c1ccccc1CC[C@@H](SCC1(CC(=O)O)CC1)c1cccc(/C=C/c2ccc3ccc(Cl)cc3n2)c1 [MONTELUKAST],Not Active
5,CN(C)CCCN1c2ccccc2CCc2ccc(Cl)cc21 [CLOMIPRAMINE],Not Active

# Target: Carbonic anhydrase 2 (Homo sapiens, UniProt P00918)
# Assay: DRUGMATRIX: Carbonic Anhydrase II enzyme inhibition (substrate: 4-Nitrophenyl acetate (4-NPA))
# Format: tissue-based, Erythrocyte
# Settings: Not Active = under 50% inhibition at 10 µM; read-out: IC50
row,SMILES,pIC50
1,Clc1ccccc1C(c1ccccc1)(c1ccccc1)n1ccnc1 [CLOTRIMAZOLE],4.52

# Same assay, conditions: erythrocyte; Not Active = under 50% inhibition at 10 µM
row,SMILES,IC50
1,CN1CCN2c3ccccc3Cc3ccccc3C2C1 (stereo unspecified) [MIANSERIN],Not Active
2,CC(C)(O)c1ccccc1CC[C@@H](SCC1(CC(=O)O)CC1)c1cccc(/C=C/c2ccc3ccc(Cl)cc3n2)c1 [MONTELUKAST],Not Active
3,COc1ccc(CCN2CCC(Nc3nc4ccccc4n3Cc3ccc(F)cc3)CC2)cc1 [ASTEMIZOLE],Not Active
4,CN(C)CCCN1c2ccccc2CCc2ccc(Cl)cc21 [CLOMIPRAMINE],Not Active

# System: not listed separately
# Assay: DRUGMATRIX: Phosphodiesterase PDE3 enzyme inhibition (substrate: [3H]cAMP + cAMP)
# Format: tissue-based, Homo sapiens
# Settings: platelet; Not Active = under 50% inhibition at 10 µM
SMILES,IC50,Ki
Nc1ccc(S(N)(=O)=O)cc1 [SULFANILAMIDE],Not Active,Not Active

# Target: T3, Muscarinic acetylcholine receptor M2 (Homo sapiens, UniProt P08172); further: in other assays of this panel Not Active means under 50% inhibition at 10 µM
# T3 sequence (P08172 whole entry): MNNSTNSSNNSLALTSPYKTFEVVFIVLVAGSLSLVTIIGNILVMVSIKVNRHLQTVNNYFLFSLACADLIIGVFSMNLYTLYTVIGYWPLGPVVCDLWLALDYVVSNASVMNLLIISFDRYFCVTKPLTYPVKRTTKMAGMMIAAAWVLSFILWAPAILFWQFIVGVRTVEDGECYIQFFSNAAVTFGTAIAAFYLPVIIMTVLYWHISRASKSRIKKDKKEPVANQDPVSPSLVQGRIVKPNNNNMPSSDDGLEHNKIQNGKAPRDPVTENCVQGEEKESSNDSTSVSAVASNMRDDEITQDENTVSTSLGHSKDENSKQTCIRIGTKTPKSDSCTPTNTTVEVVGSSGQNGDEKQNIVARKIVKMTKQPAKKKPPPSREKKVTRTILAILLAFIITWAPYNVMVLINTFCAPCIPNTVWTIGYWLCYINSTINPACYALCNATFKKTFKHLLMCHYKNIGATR
# Assay: not given
# Format: cell membranes, CHO-K1, Membrane
# Settings: cho-k1
row,SMILES,IC50
1,Nc1ccc(S(N)(=O)=O)cc1 [SULFANILAMIDE],Not Active
2,CC(C)(O)c1ccccc1CC[C@@H](SCC1(CC(=O)O)CC1)c1cccc(/C=C/c2ccc3ccc(Cl)cc3n2)c1 [MONTELUKAST],Not Active

# Same assay, conditions: read-out: IC50
row,SMILES,pIC50
1,Clc1ccccc1C(c1ccccc1)(c1ccccc1)n1ccnc1 [CLOTRIMAZOLE],4.84
2,CN(C)CCCN1c2ccccc2CCc2ccc(Cl)cc21 [CLOMIPRAMINE],6.62

# Same assay, conditions: read-out: Ki
row,SMILES,pKi
1,Clc1ccccc1C(c1ccccc1)(c1ccccc1)n1ccnc1 [CLOTRIMAZOLE],5.29
2,CN(C)CCCN1c2ccccc2CCc2ccc(Cl)cc21 [CLOMIPRAMINE],7.07
